Structures can show the parent of a compound that is named as a salt.
Key:
[1] = Drug release from drug-loaded biodegradable vehicles at 37° C. in isotonic phosphate buffer; format: physicochemical; settings: compared to hydrated naltrexone base, 25% polymer (i.v. 0.64) with pure PEG 400 or 50/50% PEG 400/TEC, drug 20% w/w
[2] = Solubility in water / dissolution buffer; format: physicochemical; settings: compared to hydrated naltrexone base; isotonic phosphate buffer
[3] = Drug release from drug-loaded biodegradable vehicles at 37° C. in isotonic phosphate buffer; format: physicochemical; settings: for drug release: drug 20% w/w
Method: A polymer (25% w/w of 50/50 lactide-co-glycolide copolymer, inherent viscosity of 0.59) was dissolved in a minimum quantity of acetone. […] The resulting solutions were stirred to yield uniform mixtures. Acetone was evaporated from the mixtures by heating at 60-75° C. with constant stirring. The biodegradable vehicles were kept in a vacuum oven at 60-75° C. overnight to ensure complete removal of acetone. […] Oxytetracycline base (20% w/w) was added to each biodegradable vehicle and mixed thoroughly to ensure uniform distribution of the drug in the formulations. Drug release from the drug-loaded biodegradable vehicles was performed at 37° C. in isotonic phosphate buffer containing sodium sulfite as an antioxidant. […]
A polymer (25% w/w of 50/50 lactide-co-glycolide copolymer, inherent viscosity of 0.59) was dissolved in a minimum quantity of acetone. Either pure polyethylene glycol 400, triethyl citrate (TEC) or acetyl triethyl citrate (ATEC) was added to the polymer solution. The resulting solutions were stirred to yield uniform mixtures. Acetone was evaporated from the mixtures by heating at 60-75° C. with constant stirring. The biodegradable vehicles were kept in a vacuum oven at 60-75° C. overnight to ensure complete removal of acetone. […] Oxytetracycline base (20% w/w) was added to each biodegradable vehicle and mixed thoroughly to ensure uniform distribution of the drug in the formulations. Drug release from the drug-loaded biodegradable vehicles was performed at 37° C. in isotonic phosphate buffer containing sodium sulfite as an antioxidant. Drug release was fastest from formulations prepared with PEG 400, and slowest from those prepared with ATEC.
The resulting solutions were stirred to yield uniform mixtures. Acetone was evaporated from the mixtures by heating at 60-75° C. with constant stirring. The biodegradable vehicles were kept in a vacuum oven at 60-75° C. overnight to ensure complete removal of acetone. […] Oxytetracycline base (20% w/w) was added to each biodegradable vehicle and mixed thoroughly to ensure uniform distribution of the drug in the vehicles. Drug release from the drug-loaded biodegradable vehicles was performed at 37° C. in isotonic phosphate buffer containing sodium sulfite as an antioxidant. Faster drug release was observed from formulations prepared with a 16.67% polymer and 83.3% of plasticizer blends of varying compositions (polymer to plasticizer ratio of 1:5) compared to those prepared from formulations with polymer to plasticizer ratios of […] (i.e. […]). This is because increasing the polymer concentration in the formulations from 16.67% to 33.3% increased the viscosity of the formulations and decreased the drug diffusion from the formulations. […]
The solutions were stirred to yield a uniform mixture. Acetone was evaporated from the mixtures by heating at 60-75° C. with constant stirring. The biodegradable vehicles were kept in a vacuum oven at 60-75° C. overnight to ensure complete removal of acetone. […] Either hydrated naltrexone base (20% w/w) or naltrexone hydrochloride (20% w/w) was added to the biodegradable vehicles and mixed thoroughly to ensure uniform distribution of the drugs in the formulations. Drug release from the drug-loaded biodegradable vehicles was performed at 37° C. in isotonic phosphate buffer. […] This is because the solubility of the naltrexone hydrochloride in the dissolution buffer is much greater than that of the hydrated naltrexone base.
A similar drug release study was performed with formulations containing either 20% oxytetracycline hydrochloride or 20% oxytetracycline base. […] The solutions were stirred to yield a uniform mixture. Acetone was evaporated from the mixtures by heating at 60-75° C. with constant stirring. The biodegradable vehicles were kept in a vacuum oven at 60-75° C. overnight to ensure complete removal of acetone. […]

[4] = hydrochloride salt compared to the base; cited from earlier work

SMILES: O=C1CC[C@@]2(O)[C@H]3Cc4ccc(O)c5c4[C@@]2(CCN3CC2CC2)[C@H]1O5 [naltrexone hydrochloride]
- drug release [1]: considerably faster
- solubility in the dissolution buffer [2]: much greater

SMILES: CN(C)[C@@H]1C(=O)C(C(N)=O)=C(O)[C@@]2(O)C(=O)C3=C(O)c4c(O)cccc4[C@@](C)(O)[C@H]3[C@H](O)[C@@H]12 [oxytetracycline base]
- drug release ([3]; blend of 75% PEG 400 and 25% TEC compared to 50/50% PEG 400/TEC at similar polymer to plasticizer ratios): considerably faster
- drug release ([3]; formulations prepared from TEC, 25% w/w polymer, compared among PEG 400, TEC, ATEC): Intermediate
- drug release ([3]; formulations prepared with ATEC, 25% w/w polymer, compared among PEG 400, TEC, ATEC): slowest
- drug release ([3]; formulations prepared with PEG 400, 25% w/w polymer, compared among PEG 400, TEC, ATEC): fastest
- drug release ([3]; on decreasing inherent viscosity of polymer from 0.76 to 0.15, PEG 400): dramatically increased
- drug release ([3]; on decreasing polymer in the formulations from 25% to 10% (PEG 400 75% to 90%), 37° C.): dramatically increased
- drug release ([3]; on increasing PEG 400 from 0% PEG 400/100% TEC to 100% PEG 400/0% TEC, 25% w/w polymer, 37° C.): faster
- cumulative amount of drug released ([3]; on increasing drug in the formulations from 10 to 30% w/w, 25% w/w 50/50 PLGA (i.v. 0.59) + PEG 400, 37° C., isotonic phosphate buffer with sodium sulfite): increased
- drug release ([3]; polymer to plasticizer ratio 1:5 (16.67% polymer) compared to 1:3, PEG 400/TEC blends): Faster

SMILES: CN(C)[C@@H]1C(O)=C(C(N)=O)C(=O)[C@@]2(O)C(O)=C3C(=O)c4c(O)cccc4[C@@](C)(O)[C@H]3[C@H](O)[C@@H]12 [oxytetracycline hydrochloride]
- aqueous solubility [4]: greater
